# Data published in ChEMBL document CHEMBL3785018, “Pharmacokinetics/pharmacodynamics of acetaminophen analgesia in Japanese patients with chronic pain” (Biol Pharm Bull, 2007).
# Columns and labels:
# Homo sapiens [1] = experiment: Drug level in Japanese healthy volunteer treated with acetaminophen at 1000 mg, po by HPLC method; assay type: ADME, organism-based; conditions: in vivo
# [2] = Tmax in Japanese chronic pain patient at 600 to 1000 mg, po administered as single dose by fluorescence polarization immunoassay; assay type: ADME, organism-based; conditions: human, in vivo
# [3] = Drug uptake in Japanese chronic pain patient at 600 to 1000 mg, po administered as single dose after 4 hrs by fluorescence polarization immunoassay; assay type: ADME, organism-based; conditions: human, in vivo, read-out: Drug uptake
# Homo sapiens [4] = experiment: Toxicity in Japanese chronic pain patient at 600 to 1000 mg, po administered as single dose; assay type: organism-based; conditions: in vivo
# [5] = Apparent volume of distribution in Japanese chronic pain patient (5 patients) at 800 +/- 141 mg, po administered as single dose by fluorescence polarization immunoassay; assay type: ADME, organism-based; conditions: human, in vivo
# [6] = AUC (0 to infinity) in Japanese healthy volunteer (5 volunteers) at 1000 mg, po by HPLC method; assay type: ADME, organism-based; set-up: dose 1000 mg, route oral, time infinity; conditions: human, in vivo
# [7] = Cmax in Japanese healthy volunteer (5 volunteers) at 1000 mg, po by HPLC method; assay type: ADME, organism-based; set-up: dose 1000 mg, route oral; conditions: human, in vivo
# Homo sapiens [8] = experiment: Analgesic activity in Japanese chronic pain patient (5 patients) assessed as sigmoid factor at 800 +/- 141 mg, po administered as single dose measured over 15 mins to 6 hrs; assay type: functional
# [9] = Apparent volume of distribution in Japanese healthy volunteer (5 volunteers) at 1000 mg, po by HPLC method; assay type: ADME, organism-based; conditions: human, in vivo
# [10] = Tmax in Japanese healthy volunteer (5 volunteers) at 1000 mg, po by HPLC method; assay type: ADME, organism-based; conditions: human, in vivo
# Homo sapiens [11] = experiment: AUC (0 to infinity) in Japanese healthy volunteer (5 volunteers) assessed as acetaminophen-cysteine at 1000 mg, po by HPLC method; assay type: ADME, organism-based; set-up: dose 1000 mg, time infinity, route oral; conditions: in vivo
# Homo sapiens [12] = experiment: AUC (0 to infinity) in Japanese healthy volunteer (5 volunteers) assessed as acetaminophen-sulfate at 1000 mg, po by HPLC method; assay type: ADME, organism-based; set-up: dose 1000 mg, route oral, time infinity; conditions: in vivo
# Homo sapiens [13] = experiment: Analgesic activity in po dosed Japanese chronic pain patient (5 patients) assessed as compound dose require to cause 50% maximum pain relief score administered as single dose measured over 15 mins to 6 hrs; assay type: functional, organism-based
# Homo sapiens [14] = experiment: Toxicity in Japanese healthy volunteer (5 volunteers) at 1000 mg, po; assay type: organism-based; conditions: in vivo
# Homo sapiens [15] = experiment: Drug metabolism in Japanese healthy volunteer assessed as acetaminophen-cysteine metabolite formation at 1000 mg, po by HPLC method; assay type: ADME, organism-based; conditions: in vivo
# Homo sapiens [16] = experiment: Analgesic activity in Japanese chronic pain patient (5 patients) assessed as maximum pain relief score at 800 +/- 141 mg, po administered as single dose measured over 15 mins to 6 hrs; assay type: functional
# [17] = Drug uptake in human after 4 hrs; assay type: ADME, organism-based; conditions: in vivo, read-out: Drug uptake
# Homo sapiens [18] = experiment: AUC (0 to infinity) in Japanese healthy volunteer (5 volunteers) assessed as acetaminophen-glucuronide at 1000 mg, po by HPLC method; assay type: ADME, organism-based; set-up: dose 1000 mg, time infinity, route oral; conditions: in vivo
Drug metabolism (Homo sapiens [1]),Tmax [2] [min],concentration at 4 h [3] [ng/mL],Vd/F [5] [L],AUC(0-inf) [6] [ng·h/mL],Cmax [7] [ng/mL],Vd/F [9] [L],Tmax [10] [min],AUC (Homo sapiens [11]) [ng·h/mL],AUC (Homo sapiens [12]) [ng·h/mL],EC50 (Homo sapiens [13]) [µg/mL],Drug metabolism (Homo sapiens [15]) [µg/mL],concentration at 4 h [17] [ng/mL],AUC (Homo sapiens [18]) [ng·h/mL],SMILES,Activity (Homo sapiens [4]),Activity (Homo sapiens [8]),Activity (Homo sapiens [14]),Emax (Homo sapiens [16])
metabolite_detected,,,,,,,,,,,,,,CC(=O)Nc1ccc(O)c(SC[C@H](N)C(=O)O)c1,,,,
,30,6700,30.9,77800,17700,69.7,30,3700,21000,2,< 0.2,120000,66000,CC(=O)Nc1ccc(O)cc1 [ACETAMINOPHEN],Non-toxic,1.3,Non-toxic,4.6
